Tests used:
[1] = target: EGFR Exon 20 ASV (HeLa*) (Homo sapiens (Human), UniProt P00533, DUP767-769); assay: EGFR protein degradation assay (Western blot); format: cell-based; conditions: 72 hours, 300 nM to 10 nM
[2] = target: EGFR-wt (MDA-MB-231 or MCF7 or A549 or OVCAR8) (Homo sapiens (Human), UniProt P00533); assay: EGFR protein degradation assay (Western blot); format: cell-based; conditions: 72 hours, 300 nM to 10 nM
Procedure, shortened: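 EGFR degradation was assessed by Western blot. Cells expressing the appropriate EGFR were seeded in 6-well plates (300,000 cells per well) and adhered overnight. Media was removed, cells were washed with cold phosphate-buffered saline, scraped into 400 μl Cell Signaling lysis buffer plus protease inhibitor cocktail, and spun once at 10 000 rpm for 10 minutes. After BCA quantification, loading buffer and reducing agent were added. Gels loaded with 10 μg protein ran at 165V for 2 hours, and bands were visualized by chemiluminescence.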

[3] = target: EGFR L858R/T790M (Homo sapiens (Human), UniProt P00533, L858R/T790M); assay: TR-FRET assay for ERBB kinases; format: biochemical; conditions: geometric mean if measured more than once
Procedure, shortened: (§1)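 Three-fold DMSO dilution series of each compound is diluted 10-fold into HEPES buffer (pH 7.5, NaCl, MgCl2, DTT, Pluronic). Enzyme is added for a 10 min pre-incubation. ATP/peptide mix (3 mM ATP, 30 uM substrate as added) starts a 10 min room-temperature reaction, halted with EDTA and Tb antibody.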

[4] = target: EGFR L858R/T790M/C797S (Homo sapiens (Human), UniProt P00533, C797S/L858R/T790M); assay: TR-FRET assay for ERBB kinases; format: biochemical; conditions: geometric mean if measured more than once
Procedure, shortened: as §1

[5] = target: EGFR WT (Homo sapiens (Human), UniProt P00533); assay: TR-FRET assay for ERBB kinases; format: biochemical; conditions: geometric mean if measured more than once
EGFR WT, sequence (P00533 25-1210): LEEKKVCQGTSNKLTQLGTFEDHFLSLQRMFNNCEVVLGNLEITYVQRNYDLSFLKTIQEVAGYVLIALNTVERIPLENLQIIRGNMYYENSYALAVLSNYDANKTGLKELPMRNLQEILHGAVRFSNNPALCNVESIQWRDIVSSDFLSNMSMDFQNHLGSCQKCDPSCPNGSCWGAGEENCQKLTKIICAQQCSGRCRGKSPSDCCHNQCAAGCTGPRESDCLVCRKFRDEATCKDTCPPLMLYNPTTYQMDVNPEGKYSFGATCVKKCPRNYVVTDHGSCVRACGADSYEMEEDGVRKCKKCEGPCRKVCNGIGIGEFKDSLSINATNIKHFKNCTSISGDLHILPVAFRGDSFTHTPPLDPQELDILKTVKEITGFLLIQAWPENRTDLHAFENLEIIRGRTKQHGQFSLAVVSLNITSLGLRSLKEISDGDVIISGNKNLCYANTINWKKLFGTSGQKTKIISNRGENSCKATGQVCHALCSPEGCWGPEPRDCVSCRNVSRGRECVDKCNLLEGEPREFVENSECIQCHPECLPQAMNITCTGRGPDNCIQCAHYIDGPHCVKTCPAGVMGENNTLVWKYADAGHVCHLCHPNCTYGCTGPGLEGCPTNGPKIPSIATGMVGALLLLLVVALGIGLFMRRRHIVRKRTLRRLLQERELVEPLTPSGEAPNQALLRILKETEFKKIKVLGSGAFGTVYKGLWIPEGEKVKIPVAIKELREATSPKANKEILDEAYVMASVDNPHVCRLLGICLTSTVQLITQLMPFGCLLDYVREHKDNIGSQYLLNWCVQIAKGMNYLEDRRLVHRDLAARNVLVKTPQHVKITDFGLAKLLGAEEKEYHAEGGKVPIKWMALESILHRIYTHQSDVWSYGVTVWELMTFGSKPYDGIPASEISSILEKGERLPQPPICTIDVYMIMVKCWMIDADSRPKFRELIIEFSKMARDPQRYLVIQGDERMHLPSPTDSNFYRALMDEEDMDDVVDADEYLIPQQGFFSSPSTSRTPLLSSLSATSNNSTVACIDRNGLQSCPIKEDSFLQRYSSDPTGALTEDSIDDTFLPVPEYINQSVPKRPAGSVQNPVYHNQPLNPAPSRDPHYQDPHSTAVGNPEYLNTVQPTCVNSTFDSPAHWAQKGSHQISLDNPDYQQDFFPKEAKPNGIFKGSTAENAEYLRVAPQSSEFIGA
Procedure, shortened: as §1

[6] = target: EGFR Exon20NPG (Homo sapiens (Human), UniProt P00533, INS770NPG); assay: TR-FRET assay for ERBB kinases; format: biochemical; conditions: geometric mean if measured more than once
EGFR Exon20NPG, sequence (P00533 other isoform, or with tags, fused parts or gaps del 1-694/ins NPG behind 770 limits assumed): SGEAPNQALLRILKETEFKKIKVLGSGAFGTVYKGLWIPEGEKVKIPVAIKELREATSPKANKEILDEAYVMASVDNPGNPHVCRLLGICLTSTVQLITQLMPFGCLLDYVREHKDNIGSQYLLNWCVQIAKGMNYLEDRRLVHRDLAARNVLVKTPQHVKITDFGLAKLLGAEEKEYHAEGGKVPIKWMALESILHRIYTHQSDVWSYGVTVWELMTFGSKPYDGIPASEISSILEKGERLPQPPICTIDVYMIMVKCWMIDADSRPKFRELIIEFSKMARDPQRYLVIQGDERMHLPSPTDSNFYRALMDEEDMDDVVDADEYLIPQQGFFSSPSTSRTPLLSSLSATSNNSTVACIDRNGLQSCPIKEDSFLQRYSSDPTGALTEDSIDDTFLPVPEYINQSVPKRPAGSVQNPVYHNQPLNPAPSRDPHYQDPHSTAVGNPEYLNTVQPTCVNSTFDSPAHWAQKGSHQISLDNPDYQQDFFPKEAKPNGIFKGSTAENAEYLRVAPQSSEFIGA
Procedure, shortened: (§2)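 Phosphorylation of fluorescein-labeled poly-GluTyr read as TR-FRET using Tb-pY20 antibody after EDTA stop, with 340 nm excitation. Kinase reaction ran 10 min at room temperature following 10 min compound pre-incubation; substrate mix held 3 mM ATP and 30 µM peptide before addition. Buffer was HEPES pH 7.5.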

[7] = target: EGFR L858R/T790M/C797S triple mutant (H520*) (Homo sapiens (Human), UniProt P00533, C797S/L858R/T790M); assay: EGFR protein degradation assay (Western blot); format: cell-based; conditions: 72 hours, 300 nM to 10 nM
Procedure, shortened: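 EGFR loss in the triple-mutant line measured by immunoblot: clarified lysates normalised by BCA, run on 4-12% Bis-Tris gels, blotted to PVDF, probed with HRP anti-rabbit secondary. Before lysis, cells were dosed from 1, 0.3, 0.1, 0.03 and 0.01 mM DMSO stocks (not final concentrations) after overnight culture at 37° C.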

[8] = target: EGFR Δ19/746/750 (Homo sapiens (Human), UniProt P00533, DEL746-750); assay: TR-FRET assay for ERBB kinases; format: biochemical; conditions: geometric mean if measured more than once
EGFR Δ19/746/750, sequence (P00533 other isoform, or with tags, fused parts or gaps del 1-694/del 746-750 limits assumed): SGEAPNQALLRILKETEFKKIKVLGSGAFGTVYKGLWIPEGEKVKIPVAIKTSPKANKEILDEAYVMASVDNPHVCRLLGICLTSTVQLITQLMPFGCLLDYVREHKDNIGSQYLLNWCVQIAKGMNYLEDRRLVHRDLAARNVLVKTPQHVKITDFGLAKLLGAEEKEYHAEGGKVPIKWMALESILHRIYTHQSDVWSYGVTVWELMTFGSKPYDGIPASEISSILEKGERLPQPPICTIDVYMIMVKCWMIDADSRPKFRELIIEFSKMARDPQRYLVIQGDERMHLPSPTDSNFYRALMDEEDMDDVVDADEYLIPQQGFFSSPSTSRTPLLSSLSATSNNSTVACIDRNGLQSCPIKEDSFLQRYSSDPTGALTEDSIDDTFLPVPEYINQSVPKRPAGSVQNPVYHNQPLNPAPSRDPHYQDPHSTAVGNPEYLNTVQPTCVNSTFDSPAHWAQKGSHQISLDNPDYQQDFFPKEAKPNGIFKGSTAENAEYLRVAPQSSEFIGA
Procedure, shortened: as §2

[9] = target: EGFR Δ19/746/750 T790M (Homo sapiens (Human), UniProt P00533, DEL746-750/T790M); assay: TR-FRET assay for ERBB kinases; format: biochemical; conditions: geometric mean if measured more than once
EGFR Δ19/746/750 T790M, sequence (P00533 other isoform, or with tags, fused parts or gaps T790M/del 1-694/del 746-750 limits assumed): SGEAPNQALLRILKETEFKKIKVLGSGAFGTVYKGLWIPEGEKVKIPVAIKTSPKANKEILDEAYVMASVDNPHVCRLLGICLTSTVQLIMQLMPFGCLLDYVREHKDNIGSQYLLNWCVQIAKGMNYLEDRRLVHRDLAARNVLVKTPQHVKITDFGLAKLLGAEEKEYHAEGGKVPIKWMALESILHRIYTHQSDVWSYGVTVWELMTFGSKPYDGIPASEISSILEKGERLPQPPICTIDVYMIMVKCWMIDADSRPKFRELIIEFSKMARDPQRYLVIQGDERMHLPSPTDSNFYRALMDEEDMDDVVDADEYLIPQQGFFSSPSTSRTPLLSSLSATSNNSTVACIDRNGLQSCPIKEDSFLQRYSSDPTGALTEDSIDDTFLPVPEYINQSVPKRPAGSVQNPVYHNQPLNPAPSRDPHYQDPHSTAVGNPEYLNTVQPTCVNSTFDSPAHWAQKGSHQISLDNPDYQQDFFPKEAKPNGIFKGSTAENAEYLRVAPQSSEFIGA
Procedure, shortened: as §2

EGFR-wt (MDA-MB-231 or MCF7 or A549 or OVCAR8), sequence (P00533 25-1210): as the sequence (P00533 25-1210) above
EGFR Exon 20 ASV (HeLa*), sequence (P00533 other isoform, or with tags, fused parts or gaps dup 767-769): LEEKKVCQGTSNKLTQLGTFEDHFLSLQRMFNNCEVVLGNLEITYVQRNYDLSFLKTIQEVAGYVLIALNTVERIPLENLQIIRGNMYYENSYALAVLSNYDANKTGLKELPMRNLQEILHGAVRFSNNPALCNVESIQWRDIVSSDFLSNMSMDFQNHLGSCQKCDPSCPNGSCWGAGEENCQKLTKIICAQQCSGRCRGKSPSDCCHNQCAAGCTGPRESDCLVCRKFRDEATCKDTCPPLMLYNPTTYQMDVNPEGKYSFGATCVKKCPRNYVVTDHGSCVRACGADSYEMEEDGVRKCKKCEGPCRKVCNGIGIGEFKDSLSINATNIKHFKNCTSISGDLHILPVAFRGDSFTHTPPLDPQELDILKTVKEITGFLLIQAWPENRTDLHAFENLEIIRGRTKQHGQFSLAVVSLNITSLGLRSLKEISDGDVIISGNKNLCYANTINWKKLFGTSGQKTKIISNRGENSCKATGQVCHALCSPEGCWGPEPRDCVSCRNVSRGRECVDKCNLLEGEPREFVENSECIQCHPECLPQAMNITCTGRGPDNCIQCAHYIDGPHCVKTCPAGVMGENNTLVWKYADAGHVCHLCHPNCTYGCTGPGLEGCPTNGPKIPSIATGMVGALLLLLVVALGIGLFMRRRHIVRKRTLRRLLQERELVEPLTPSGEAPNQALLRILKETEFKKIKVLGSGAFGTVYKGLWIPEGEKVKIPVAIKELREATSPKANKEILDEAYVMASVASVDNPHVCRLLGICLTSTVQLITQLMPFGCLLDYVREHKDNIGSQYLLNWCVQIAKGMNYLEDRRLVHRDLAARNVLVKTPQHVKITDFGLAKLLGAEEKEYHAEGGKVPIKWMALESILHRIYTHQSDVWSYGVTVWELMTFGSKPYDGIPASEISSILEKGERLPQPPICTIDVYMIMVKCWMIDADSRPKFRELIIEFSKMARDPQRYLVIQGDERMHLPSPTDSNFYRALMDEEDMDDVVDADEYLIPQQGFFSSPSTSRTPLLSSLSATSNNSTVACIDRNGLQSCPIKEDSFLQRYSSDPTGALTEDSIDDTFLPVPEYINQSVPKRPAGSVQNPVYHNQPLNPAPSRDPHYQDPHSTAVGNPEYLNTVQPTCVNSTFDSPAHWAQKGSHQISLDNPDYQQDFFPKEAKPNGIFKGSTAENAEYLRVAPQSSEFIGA

## Cc1ncsc1-c1ccc(CNC(=O)[C@@H]2C[C@@H](O)CN2C(=O)[C@H](C(C)C)N2Cc3ccccc3C2=O)c(OCCN2CCN(Cc3ccc(-c4cc5c(NCc6ccccc6Cl)ncnc5[nH]4)cc3)CC2)c1 [Example 106, (2S,4R)—N-(2-(2-(4-(4-(4-((2-chlorobenzyl)amino)-7H-pyrrolo[2,3-d]pyrimidin-6-yl)benzyl)piperazin-1-yl)ethoxy)-4-(4-methylthiazol-5-yl)benzyl)-4-hydroxy-1-((S)-3-methyl-2-(1-oxoisoindolin-2-yl)butanoyl)pyrrolidine-2-carboxamide]
[1]
  EGFR protein remaining, EGFR Exon 20 ASV: C (>80% EGFR protein remaining after 72 hours of incubation with the test compound at a concentration of 300 nM)
[2]
  EGFR protein remaining, EGFR-wt: C (>80% EGFR protein remaining after 72 hours of incubation with the test compound at a concentration of 300 nM)
[3]
  IC50: 4900 nM
[4]
  IC50: 5200 nM
[5]
  IC50: 470 nM
[6]
  IC50: 1900 nM

## Cc1ncsc1-c1ccc(CNC(=O)[C@@H]2C[C@@H](O)CN2C(=O)[C@H](C(C)C)N2Cc3ccccc3C2=O)c(OCCOCCOCCN2CCN(Cc3ccc(-c4cc5c(NCc6ccccc6Cl)ncnc5[nH]4)cc3)CC2)c1 [Example 108, (2S,4R)—N-(2-(2-(2-(2-(4-(4-(4-((2-Chlorobenzyl)amino)-7H-pyrrolo[2,3-d]pyrimidin-6-yl)benzyl)piperazin-1-yl)ethoxy)ethoxy)ethoxy)-4-(4-methylthiazol-5-yl)benzyl)-4-hydroxy-1-((S)-3-methyl-2-(1-oxoisoindolin-2-yl)butanoyl)pyrrolidine-2-carboxamide]
[1]
  EGFR protein remaining, EGFR Exon 20 ASV: C (>80% EGFR protein remaining after 72 hours of incubation with the test compound at a concentration of 300 nM)
[2]
  EGFR protein remaining, EGFR-wt: C (>80% EGFR protein remaining after 72 hours of incubation with the test compound at a concentration of 300 nM)
[3]
  IC50: 10000 nM
[4]
  IC50: 7800 nM
[5]
  IC50: 770 nM
[6]
  IC50: 980 nM

## COC1CCN(c2nccc(Nc3cc4c(cn3)nc(COCCN3CCN(c5ccc(OCCCN6CCN(c7ccc8c(c7)C(=O)N(C7CCC(=O)NC7=O)C8=O)CC6)cc5)CC3)n4C(C)C)n2)CC1 (stereo not drawn) [Example 301, 2-(2,6-dioxopiperidin-3-yl)-5-(4-(3-(4-(4-(2-((1-isopropyl-6-((2-(4-methoxypiperidin-1-yl)pyrimidin-4-yl)amino)-1H-imidazo[4,5-c]pyridin-2-yl)methoxy)ethyl)piperazin-1-yl)phenoxy)propyl)piperazin-1-yl)isoindoline-1,3-dione]
[7]
  EGFR protein remaining, EGFR L858R/T790M/C797S triple mutant: C (>80% EGFR protein remaining after 72 hours of incubation with the test compound at a concentration of 300 nM)
[3]
  IC50: 240 nM
[4]
  IC50: 34 nM
[5]
  IC50: 2800 nM
[8]
  IC50: 1600 nM
[9]
  IC50: 270 nM

## O=C1CCC(N2C(=O)c3ccc(OCCN4CCN(Cc5ccc(C6Cc7c(NCc8ccccc8Cl)ncnc7N6)cc5)CC4)cc3C2=O)C(=O)N1 (stereo not drawn) [compound 101]
[1]
  EGFR protein remaining, EGFR Exon 20 ASV: C (>80% EGFR protein remaining after 72 hours of incubation with the test compound at a concentration of 300 nM)
[2]
  EGFR protein remaining, EGFR-wt: C (>80% EGFR protein remaining after 72 hours of incubation with the test compound at a concentration of 300 nM)
[3]
  IC50: 3400 nM
[4]
  IC50: 3600 nM
[5]
  IC50: 12 nM
[6]
  IC50: 69 nM

## O=C1CCC(N2C(=O)c3ccc(OCCOCCOCCOCCOCCN4CCN(Cc5ccc(C6Cc7c(NCc8ccccc8Cl)ncnc7N6)cc5)CC4)cc3C2=O)C(=O)N1 (stereo not drawn) [compound 104]
[1]
  EGFR protein remaining, EGFR Exon 20 ASV: C (>80% EGFR protein remaining after 72 hours of incubation with the test compound at a concentration of 300 nM)
[2]
  EGFR protein remaining, EGFR-wt: C (>80% EGFR protein remaining after 72 hours of incubation with the test compound at a concentration of 300 nM)
[3]
  IC50: 12000 nM
[4]
  IC50: 8200 nM
[5]
  IC50: 590 nM
[6]
  IC50: 510 nM

## O=C1CCC(N2C(=O)c3ccc(OCCOCCOCCOCCOCCOCCN4CCN(Cc5ccc(C6Cc7c(NCc8ccccc8Cl)ncnc7N6)cc5)CC4)cc3C2=O)C(=O)N1 (stereo not drawn) [compound 105]
[1]
  EGFR protein remaining, EGFR Exon 20 ASV: C (>80% EGFR protein remaining after 72 hours of incubation with the test compound at a concentration of 300 nM)
[2]
  EGFR protein remaining, EGFR-wt: C (>80% EGFR protein remaining after 72 hours of incubation with the test compound at a concentration of 300 nM)
[3]
  IC50: > 30000 nM
[4]
  IC50: 24000 nM
[5]
  IC50: 970 nM
[6]
  IC50: 820 nM

## Cc1ncsc1-c1ccc(CNC(=O)[C@@H]2C[C@@H](O)CN2C(=O)[C@H](C(C)C)N2Cc3ccccc3C2=O)c(OCCOCCN2CCN(Cc3ccc(-c4cc5c(NCc6ccccc6Cl)ncnc5[nH]4)cc3)CC2)c1 [compound 107]
[1]
  EGFR protein remaining, EGFR Exon 20 ASV: C (>80% EGFR protein remaining after 72 hours of incubation with the test compound at a concentration of 300 nM)
[2]
  EGFR protein remaining, EGFR-wt: C (>80% EGFR protein remaining after 72 hours of incubation with the test compound at a concentration of 300 nM)
[3]
  IC50: 6700 nM
[4]
  IC50: 6000 nM
[5]
  IC50: 140 nM
[6]
  IC50: 600 nM

## Cc1ncsc1-c1ccc(CNC(=O)[C@@H]2C[C@@H](O)CN2C(=O)[C@H](C(C)C)N2Cc3ccccc3C2=O)c(OCCOCCOCCOCCN2CCN(Cc3ccc(-c4cc5c(NCc6ccccc6Cl)ncnc5[nH]4)cc3)CC2)c1 [compound 109]
[1]
  EGFR protein remaining, EGFR Exon 20 ASV: C (>80% EGFR protein remaining after 72 hours of incubation with the test compound at a concentration of 300 nM)
[2]
  EGFR protein remaining, EGFR-wt: C (>80% EGFR protein remaining after 72 hours of incubation with the test compound at a concentration of 300 nM)
[3]
  IC50: 6000 nM
[4]
  IC50: 8900 nM
[5]
  IC50: 180 nM
[6]
  IC50: 580 nM

## Cc1ncsc1-c1ccc(CNC(=O)[C@@H]2C[C@@H](O)CN2C(=O)[C@H](C(C)C)N2Cc3ccccc3C2=O)c(OCCOCCOCCOCCOCCN2CCN(Cc3ccc(-c4cc5c(NCc6ccccc6Cl)ncnc5[nH]4)cc3)CC2)c1 [compound 110]
[1]
  EGFR protein remaining, EGFR Exon 20 ASV: C (>80% EGFR protein remaining after 72 hours of incubation with the test compound at a concentration of 300 nM)
[2]
  EGFR protein remaining, EGFR-wt: C (>80% EGFR protein remaining after 72 hours of incubation with the test compound at a concentration of 300 nM)
[3]
  IC50: 8600 nM
[4]
  IC50: 12000 nM
[5]
  IC50: 770 nM
[6]
  IC50: 1800 nM

## Cc1ncsc1-c1ccc([C@H](C)NC(=O)[C@@H]2C[C@@H](O)CN2C(=O)[C@@H](NC(=O)COCCCOc2ccc(N3CCN(CCOCc4nc5cnc(Nc6ccnc(-c7cnn(S(=O)(=O)C8CC8)c7)n6)cc5n4C(C)C)CC3)cc2)C(C)(C)C)cc1 [compound 306]
[7]
  EGFR protein remaining, EGFR L858R/T790M/C797S triple mutant: A (≤50% EGFR protein remaining after 72 hours of incubation with the test compound at a concentration between 300 nM and 10 nM)
[3]
  IC50: 53 nM
[4]
  IC50: 16 nM
[5]
  IC50: 13000 nM
[8]
  IC50: 380 nM
[9]
  IC50: 21 nM

## Cc1ncsc1-c1ccc([C@H](C)NC(=O)[C@@H]2C[C@@H](O)CN2C(=O)[C@@H](NC(=O)COCCOCCCNCC2CN(c3nn(C(C)C)c4cc(Nc5ccnc(-c6cnn(S(=O)(=O)C7CC7)c6)n5)ncc34)C2)C(C)(C)C)cc1 [compound 308]
[7]
  EGFR protein remaining, EGFR L858R/T790M/C797S triple mutant: B (≤80% and >50% EGFR protein remaining after 72 hours of incubation with the test compound at a concentration between 300 nM and 10 nM)
[3]
  IC50: 0.91 nM
[4]
  IC50: 0.27 nM
[5]
  IC50: 120 nM
[8]
  IC50: 53 nM
[9]
  IC50: 2.1 nM
